The record followed here is publication PMC5552954, “Regulation of Burkholderia cenocepacia biofilm formation by RpoN and the c‐di‐GMP effector BerB” (MicrobiologyOpen, 2017).

In experiment [1] the target is T1, BerB (Burkholderia cenocepacia, UniProt B4EHY3).
T1 construct: gene BCAM1342; berB in pGEX-6P-2, expressed in E. coli Rosetta (DE3) pLysS as GST fusion, eluted with glutathione
Put plainly: SPR, steady-state affinity fit. Conditions: labelled compound; biotinylated c-di-GMP immobilised on chip, protein injected; HEPES buffer pH 7.4, 150 mmol/L NaCl, 0.05% Tween. Type of experiment: binding. From the text: SPR, steady-state affinity fit on BerB | BerB was able to bind to the biotinylated c‐di‐GMP in a concentration‐dependent manner

Experiment [2] has as its target T2, BerA (Burkholderia cenocepacia, UniProt B4EIC5).
T2 construct: gene BCAM1349; berA in pGEX-6P-2, expressed in E. coli Rosetta (DE3) pLysS as GST fusion, eluted with glutathione
In words: SPR, steady-state affinity fit. Type of experiment: binding. Conditions: labelled compound; biotinylated c-di-GMP immobilised on chip, protein injected; PBS buffer pH 7.4; known binder as positive control. A general note: In SPR one partner is held on a chip, and binding of the other changes the refractive index at the surface.

T1 sequence (B4EHY3 entry or part of it): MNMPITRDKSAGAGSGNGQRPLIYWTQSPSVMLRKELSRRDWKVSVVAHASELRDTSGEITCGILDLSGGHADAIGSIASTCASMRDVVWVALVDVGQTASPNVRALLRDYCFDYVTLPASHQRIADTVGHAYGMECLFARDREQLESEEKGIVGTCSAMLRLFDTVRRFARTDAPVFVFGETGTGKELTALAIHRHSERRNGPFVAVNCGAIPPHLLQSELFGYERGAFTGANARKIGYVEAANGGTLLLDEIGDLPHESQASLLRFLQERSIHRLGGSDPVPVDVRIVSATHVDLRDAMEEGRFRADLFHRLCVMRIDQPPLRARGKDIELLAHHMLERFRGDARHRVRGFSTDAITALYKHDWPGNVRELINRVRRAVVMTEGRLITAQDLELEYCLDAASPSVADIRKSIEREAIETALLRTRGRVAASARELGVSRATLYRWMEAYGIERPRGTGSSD
T2 sequence (B4EIC5 entry or part of it): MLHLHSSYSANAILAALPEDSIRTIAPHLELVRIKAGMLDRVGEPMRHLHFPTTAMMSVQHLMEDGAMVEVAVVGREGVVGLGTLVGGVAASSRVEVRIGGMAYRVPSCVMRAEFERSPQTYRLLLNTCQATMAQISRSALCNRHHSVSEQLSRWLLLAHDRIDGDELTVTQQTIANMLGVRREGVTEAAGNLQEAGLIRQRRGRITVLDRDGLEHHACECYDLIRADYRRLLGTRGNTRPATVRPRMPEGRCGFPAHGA

One may read the Kd as the equilibrium constant for the complex coming apart. Low values mean higher affinity, high ones lower affinity. As to biotinylated c-di-GMP, the Kd in experiment [1] and in experiment [2] was about 3 µM throughout.
